Reference: patent US11421001B2, “Template-fixed peptidomimetics” (UNIVERSITAET ZUERICH, priority 2007, dated 2022)
Positions of bridges follow the written chain, without caps; N, C: chain ends. Non-standard residues stand in square brackets, D forms with d. Residues, ends and D or L forms follow the SMILES beside them. Dab = NCC[C@H](N)C(=O)O

Columns and labels:
FIGS-Assay = assay type: cell-based; details: 48 hours of co-cultivation; ONPG read out at 405 nm
Procedure: The assay was performed according to ref. 5, below. Stock dilutions of the peptides (10 μM) were prepared by dissolving in […] at room temperature. Stock solutions were kept at +4° C., light protected. Working dilutions were prepared extemporaneously by serial dilution in Phosphate Buffered Saline (PBS) and added in a final volume of 10 μl directly to the cell cultures. After 48 hours of co-cultivation the cultures were rinsed with PBS and then exposed to glutaraldehyde/formaldehyde (0.2%/2%) in PBS for five minutes. For photometric quantification the fixed cultures were subsequently incubated with ortho-nitro-phenyl-galactopyranoside (ONPG) as a β-galactosidase substrate, which was enzymatically converted into the chromophore ortho-nitrophenol (ONP). The read out is directly obtained by measuring optical density of wells at 405 nm in an iEMS 96well-plate reader.
‘CCR5’ cells were cultured in DMEM medium with […] glucose, 10% fetal bovine serum (FBS), supplemented with 50 U/ml Penicillin and 50 μg/ml Streptomycin (Pen/Strept.). Hut/4-3 cells were maintained in RPMI medium, 10% FBS, supplemented with Pen/Strept. and 10 mM HEPES. HELA cells and CCRF-CEM cells were maintained in RPMI1640 plus 5% FBS, Pen/Strept and 2 mM L-Glutamine. Cos-7 cells were grown in DMEM medium with […] glucose supplemented with 10% FCS, Pen/Strept. and 2 mM L-Glutamine. […]

[1] = system: human red blood cells (hRBC); assay: Hemolysis; assay type: cell-based
Procedure: The peptides were tested for their hemolytic activity against human red blood cells (hRBC). Fresh hRBC were washed three times with phosphate buffered saline (PBS) by centrifugation for 10 min at 2000×g. Peptides at a concentration of 100 μM were incubated with 20% v/v hRBC for 1 hour at 37° C. The final erythrocyte concentration was approximately 0.9×10^9 cells per ml. A value of 0% resp. 100% cell lysis was determined by incubation of the hRBC in the presence of PBS alone and respectively 0.1% Triton X-100 in H2O. The samples were centrifuged and the supernatant was 20-fold diluted in PBS buffer and the optical density (OD) of the sample at […] was measured. The 100% lyses value (OD540H2O) gave an OD540 of approximately 1.3-1.8. Percent hemolysis was calculated as follows: (OD540peptide/OD540H2O)×100%.

[2] = Plasma stability, human plasma; assay type: in vitro ADME; details: read-out: Stability human Plasma t1/2
[3] = Plasma stability, rat plasma; assay type: in vitro ADME; details: read-out: Stability rat Plasma t1/2
[4] = system: hematopoietic progenitors (CFU-GM); assay: Stem cell mobilisation, mice model (CFU-GM); assay type: in vivo, mouse; details: C3H/HeJ mice, 5 mg/kg s.c.
Excerpt: The aim of the study was to evaluate the ability of the compound of Example 1 and Example 2 to mobilize hematopoietic progenitors from mouse bone marrow to peripheral blood using in-vitro hematopoietic colony assays. In humans, accurate information about progenitor cell mobilization is provided by the colony forming unit granulocyte-monocyte (CFU-GM) assay or by determining the abundance of CD34(+) cells by FACS analysis (see ref. 10 below). In mice, CD34 is not a useful marker for stem cells; instead the CFU-GM is more commonly used (see ref. 11 below).
In order to assess the ability of the compounds of Example 1 and Example 2 to mobilize murine stem cells (CFU-GM) C3H/HeJ female mice (Jackson Laboratory) were injected s.c. with 5 mg/k, of the compounds of Example 1 and of Example 2 and as reference AMD3100 (Broxmeyer, et al, J Exp Med 201, 1307-1318), (currently undergoing Phase III clinical trials) for stem cell mobilisation. Peripheral blood samples from 5 animals per test group were collected at each time point and nucleated cell counts performed as standard assays.

## C[C@@H]1NC(=O)[C@H](CO)NC(=O)[C@@H]2CSSC[C@H](NC(=O)[C@H](Cc3ccc(O)cc3)NC(=O)[C@H](CCCNC(=N)N)NC(=O)[C@H](CCN)NC(=O)[C@H]3CCCN3C1=O)C(=O)N[C@@H](Cc1ccc(O)cc1)C(=O)N[C@@H](CCC(N)=O)C(=O)N[C@@H](CCCCN)C(=O)N1CCC[C@@H]1C(=O)N1CCC[C@H]1C(=O)N[C@@H](Cc1ccc(O)cc1)C(=O)N[C@@H](Cc1c[nH]cn1)C(=O)N[C@@H](Cc1ccc(O)cc1)C(=O)N2 [Example 2] (cyclo(YHYCSA[dP][Dab]RYCYQK[dP]P); disulfide 4-11)
FIGS-Assay
  IC50: 24.7 nM
[1]
  Hemo-lysis at 100 μM: 0.3
[2]
  half-life at 10 µM: > 5 h
[3]
  half-life at 10 µM: > 5 h
[4]
  time of maximal effect on CFU-GM blood cell numbers: 240 min
[4]; compared to control mice
  effect on CFU-GM blood cell numbers / progenitors over time: increased the CFU-GM blood cell numbers up to six hours post administration
